Experiments:
Test in all cases: Radiolabeled ATP kinase assay, panel of 371 kinases (Table S6)
Assay type in all cases: biochemical
[1] = target: T1, panel of 371 human kinases (Homo sapiens, UniProt P08631); settings: HCK; 0.1 μM; 10 μM ATP; read-out: % Enzyme Activity (relative to DMSO controls)
T1 construct: purchased Reaction Biology Corp
Excerpt: (§1) ; FIG. 38C). […]. Further targeted analyses, such as genetic knock-down or knock-out, may be warranted to parse the role of these additional kinases in our model of neurodegeneration.

[2] = target: T2, panel of 371 human kinases (Homo sapiens, UniProt Q08881); settings: ITK; 0.1 μM; 10 μM ATP; read-out: % Enzyme Activity (relative to DMSO controls)
T2 construct: purchased Reaction Biology Corp
Excerpt: as §1

[3] = target: T3, panel of 371 human kinases (Homo sapiens, UniProt Q9UHD2); settings: TBK1; 0.1 μM; 10 μM ATP; read-out: % Enzyme Activity (relative to DMSO controls)
T3 construct: purchased Reaction Biology Corp
Excerpt: as §1

[4] = target: T4, panel of 371 human kinases (Homo sapiens, UniProt P23443); settings: p70S6K/RPS6KB1; 0.1 μM; 10 μM ATP; read-out: % Enzyme Activity (relative to DMSO controls)
T4 construct: purchased Reaction Biology Corp
Excerpt: as §1

[5] = target: T5, panel of 371 human kinases (Homo sapiens, UniProt O43353); settings: RIPK2; 0.1 μM; 10 μM ATP; read-out: % Enzyme Activity (relative to DMSO controls)
T5 construct: purchased Reaction Biology Corp
Excerpt: as §1

[6] = target: T6, panel of 371 human kinases (Homo sapiens, UniProt P36897); settings: ALK5/TGFBR1; 0.1 μM; 10 μM ATP; read-out: % Enzyme Activity (relative to DMSO controls)
T6 construct: purchased Reaction Biology Corp
Excerpt: as §1

[7] = target: T7, panel of 371 human kinases (Homo sapiens, UniProt Q9UM73); settings: ALK; 0.1 μM; 10 μM ATP; read-out: % Enzyme Activity (relative to DMSO controls)
T7 construct: purchased Reaction Biology Corp
Excerpt: as §1

[8] = target: T8, panel of 371 human kinases (Homo sapiens, UniProt Q16620); settings: TRKB; 0.1 μM; 10 μM ATP; read-out: % Enzyme Activity (relative to DMSO controls)
T8 construct: purchased Reaction Biology Corp
Excerpt: as §1

[9] = target: T9, panel of 371 human kinases (Homo sapiens, UniProt Q8TDX7); settings: NEK7; 0.1 μM; 10 μM ATP; read-out: % Enzyme Activity (relative to DMSO controls)
T9 construct: purchased Reaction Biology Corp
Excerpt: as §1

[10] = target: T10, panel of 371 human kinases (Homo sapiens, UniProt P36894); settings: ALK1/BMPR1A; 0.1 μM; 10 μM ATP; read-out: % Enzyme Activity (relative to DMSO controls)
T10 construct: purchased Reaction Biology Corp
Excerpt: as §1

[11] = target: T11, panel of 371 human kinases (Homo sapiens, UniProt P25098); settings: GRK2; 0.1 μM; 10 μM ATP; read-out: % Enzyme Activity (relative to DMSO controls)
T11 construct: purchased Reaction Biology Corp
Excerpt: as §1

[12] = target: T12, panel of 371 human kinases (Homo sapiens, UniProt P42680); settings: TEC; 0.1 μM; 10 μM ATP; read-out: % Enzyme Activity (relative to DMSO controls)
T12 construct: purchased Reaction Biology Corp
Excerpt: as §1

[13] = target: T13, panel of 371 human kinases (Homo sapiens, UniProt P52333); settings: JAK3; 0.1 μM; 10 μM ATP; read-out: % Enzyme Activity (relative to DMSO controls)
T13 construct: purchased Reaction Biology Corp
Excerpt: as §1

[14] = target: T14, panel of 371 human kinases (Homo sapiens, UniProt P05771); settings: PKCb1; 0.1 μM; 10 μM ATP; read-out: % Enzyme Activity (relative to DMSO controls)
T14 construct: purchased Reaction Biology Corp
Excerpt: as §1

[15] = target: T15, panel of 371 human kinases (Homo sapiens, UniProt O60285); settings: ARK5/NUAK1; 0.1 μM; 10 μM ATP; read-out: % Enzyme Activity (relative to DMSO controls)
T15 construct: purchased Reaction Biology Corp
Excerpt: as §1

[16] = target: T16, panel of 371 human kinases (Homo sapiens, UniProt Q9H4B4); settings: PLK3; 0.1 μM; 10 μM ATP; read-out: % Enzyme Activity (relative to DMSO controls)
T16 construct: purchased Reaction Biology Corp
Excerpt: as §1

[17] = target: T17, panel of 371 human kinases (Homo sapiens, UniProt Q16584); settings: for remaining activity at 0.1 µM: MLK3/MAP3K11, 10 μM ATP, read-out: % Enzyme Activity (relative to DMSO controls)
T17 construct: purchased Reaction Biology Corp
Excerpt: as §1

[18] = target: T18, panel of 371 human kinases (Homo sapiens, UniProt Q13976); settings: PKG1a; 0.1 μM; 10 μM ATP; read-out: % Enzyme Activity (relative to DMSO controls)
T18 construct: purchased Reaction Biology Corp
Excerpt: as §1

[19] = target: T19, panel of 371 human kinases (Homo sapiens, UniProt P51957); settings: NEK4; 0.1 μM; 10 μM ATP; read-out: % Enzyme Activity (relative to DMSO controls)
T19 construct: purchased Reaction Biology Corp
Excerpt: as §1

[20] = target: T20, panel of 371 human kinases (Homo sapiens, UniProt Q9UL54); settings: TAOK2/TAO1; 0.1 μM; 10 μM ATP; read-out: % Enzyme Activity (relative to DMSO controls)
T20 construct: purchased Reaction Biology Corp
Excerpt: as §1

[21] = target: T21, panel of 371 human kinases (Homo sapiens, UniProt Q9Y2K2); settings: SIK3; 0.1 μM; 10 μM ATP; read-out: % Enzyme Activity (relative to DMSO controls)
T21 construct: purchased Reaction Biology Corp
Excerpt: as §1

[22] = target: T22, panel of 371 human kinases (Homo sapiens, UniProt Q96NX5); settings: CAMK1g; 0.1 μM; 10 μM ATP; read-out: % Enzyme Activity (relative to DMSO controls)
T22 construct: purchased Reaction Biology Corp
Excerpt: as §1

[23] = target: T23, panel of 371 human kinases (Homo sapiens, UniProt Q15759); settings: P38b/MAPK11; 0.1 μM; 10 μM ATP; read-out: % Enzyme Activity (relative to DMSO controls)
T23 construct: purchased Reaction Biology Corp
Excerpt: as §1

[24] = target: T24, panel of 371 human kinases (Homo sapiens, UniProt Q16566); settings: CAMK4; 0.1 μM; 10 μM ATP; read-out: % Enzyme Activity (relative to DMSO controls)
T24 construct: purchased Reaction Biology Corp
Excerpt: as §1

T17 sequence (Q16584 whole entry): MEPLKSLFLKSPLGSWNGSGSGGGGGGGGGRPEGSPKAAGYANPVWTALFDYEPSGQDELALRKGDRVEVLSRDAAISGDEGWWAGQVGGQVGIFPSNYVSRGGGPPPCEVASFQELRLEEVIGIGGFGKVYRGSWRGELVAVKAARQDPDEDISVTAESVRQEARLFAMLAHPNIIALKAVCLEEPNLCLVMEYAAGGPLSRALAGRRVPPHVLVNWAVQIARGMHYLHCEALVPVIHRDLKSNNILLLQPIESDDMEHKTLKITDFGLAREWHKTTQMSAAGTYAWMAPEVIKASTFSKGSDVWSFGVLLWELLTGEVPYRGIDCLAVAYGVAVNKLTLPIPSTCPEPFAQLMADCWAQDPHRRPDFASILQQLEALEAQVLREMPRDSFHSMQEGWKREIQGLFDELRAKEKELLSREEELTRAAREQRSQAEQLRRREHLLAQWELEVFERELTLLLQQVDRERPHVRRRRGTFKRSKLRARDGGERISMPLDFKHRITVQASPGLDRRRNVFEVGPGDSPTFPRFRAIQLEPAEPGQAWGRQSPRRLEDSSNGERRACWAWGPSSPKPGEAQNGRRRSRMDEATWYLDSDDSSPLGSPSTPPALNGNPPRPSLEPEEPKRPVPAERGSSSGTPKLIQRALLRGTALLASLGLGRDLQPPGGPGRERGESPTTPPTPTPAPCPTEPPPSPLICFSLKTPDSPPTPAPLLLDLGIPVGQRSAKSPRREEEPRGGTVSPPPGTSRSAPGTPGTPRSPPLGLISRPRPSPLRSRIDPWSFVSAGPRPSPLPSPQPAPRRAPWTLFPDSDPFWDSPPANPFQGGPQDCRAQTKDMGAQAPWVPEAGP
T15 sequence (O60285 whole entry): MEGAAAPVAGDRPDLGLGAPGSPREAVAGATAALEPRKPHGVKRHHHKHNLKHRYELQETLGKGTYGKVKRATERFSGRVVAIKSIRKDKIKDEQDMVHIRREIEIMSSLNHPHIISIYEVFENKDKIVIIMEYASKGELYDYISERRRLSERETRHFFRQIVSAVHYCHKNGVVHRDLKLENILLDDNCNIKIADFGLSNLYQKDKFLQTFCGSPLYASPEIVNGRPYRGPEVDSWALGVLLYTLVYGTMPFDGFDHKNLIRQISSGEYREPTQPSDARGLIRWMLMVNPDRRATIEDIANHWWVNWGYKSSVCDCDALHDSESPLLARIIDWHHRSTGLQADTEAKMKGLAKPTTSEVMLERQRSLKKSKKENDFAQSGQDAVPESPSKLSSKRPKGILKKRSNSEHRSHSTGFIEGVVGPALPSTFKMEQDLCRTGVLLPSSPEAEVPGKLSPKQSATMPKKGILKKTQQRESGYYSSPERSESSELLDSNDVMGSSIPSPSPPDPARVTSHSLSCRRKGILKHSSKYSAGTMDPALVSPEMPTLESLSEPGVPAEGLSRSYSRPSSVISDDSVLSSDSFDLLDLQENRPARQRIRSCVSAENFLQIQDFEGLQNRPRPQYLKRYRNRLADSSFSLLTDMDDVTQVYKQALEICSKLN
T9 sequence (Q8TDX7 whole entry): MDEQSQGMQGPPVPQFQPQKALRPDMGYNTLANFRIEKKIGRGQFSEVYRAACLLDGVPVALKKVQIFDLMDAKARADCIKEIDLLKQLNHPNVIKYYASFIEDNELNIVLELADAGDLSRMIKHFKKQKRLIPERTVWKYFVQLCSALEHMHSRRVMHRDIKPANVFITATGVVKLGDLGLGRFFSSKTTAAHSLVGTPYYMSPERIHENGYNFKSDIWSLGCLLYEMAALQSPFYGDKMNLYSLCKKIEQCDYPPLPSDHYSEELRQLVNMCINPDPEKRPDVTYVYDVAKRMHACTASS
T22 sequence (Q96NX5 whole entry): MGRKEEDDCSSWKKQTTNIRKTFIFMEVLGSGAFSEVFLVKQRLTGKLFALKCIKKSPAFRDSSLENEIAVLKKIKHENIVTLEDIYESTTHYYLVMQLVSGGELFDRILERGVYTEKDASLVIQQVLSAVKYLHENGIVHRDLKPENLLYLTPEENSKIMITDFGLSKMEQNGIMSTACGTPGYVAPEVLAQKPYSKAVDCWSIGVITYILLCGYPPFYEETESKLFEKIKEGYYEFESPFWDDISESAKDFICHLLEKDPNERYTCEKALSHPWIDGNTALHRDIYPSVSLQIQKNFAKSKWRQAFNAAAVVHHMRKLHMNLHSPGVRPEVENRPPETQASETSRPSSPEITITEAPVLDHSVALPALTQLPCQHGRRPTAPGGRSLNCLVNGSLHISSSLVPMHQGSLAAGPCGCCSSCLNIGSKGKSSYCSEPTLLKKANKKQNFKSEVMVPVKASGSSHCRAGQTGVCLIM
T4 sequence (P23443 whole entry): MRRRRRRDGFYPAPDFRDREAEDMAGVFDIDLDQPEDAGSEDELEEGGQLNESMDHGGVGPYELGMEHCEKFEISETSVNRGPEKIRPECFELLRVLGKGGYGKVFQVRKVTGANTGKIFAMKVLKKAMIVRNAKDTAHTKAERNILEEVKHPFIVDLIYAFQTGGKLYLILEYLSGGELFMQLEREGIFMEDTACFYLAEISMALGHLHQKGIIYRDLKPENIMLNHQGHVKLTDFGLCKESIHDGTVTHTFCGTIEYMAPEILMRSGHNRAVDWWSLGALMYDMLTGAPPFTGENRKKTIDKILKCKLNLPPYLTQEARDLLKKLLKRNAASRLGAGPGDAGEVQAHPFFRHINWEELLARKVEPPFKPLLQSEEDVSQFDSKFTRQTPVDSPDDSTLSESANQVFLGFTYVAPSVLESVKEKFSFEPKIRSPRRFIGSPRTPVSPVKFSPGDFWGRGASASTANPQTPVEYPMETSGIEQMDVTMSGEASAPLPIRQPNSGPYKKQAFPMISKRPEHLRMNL
T6 sequence (P36897 34-503): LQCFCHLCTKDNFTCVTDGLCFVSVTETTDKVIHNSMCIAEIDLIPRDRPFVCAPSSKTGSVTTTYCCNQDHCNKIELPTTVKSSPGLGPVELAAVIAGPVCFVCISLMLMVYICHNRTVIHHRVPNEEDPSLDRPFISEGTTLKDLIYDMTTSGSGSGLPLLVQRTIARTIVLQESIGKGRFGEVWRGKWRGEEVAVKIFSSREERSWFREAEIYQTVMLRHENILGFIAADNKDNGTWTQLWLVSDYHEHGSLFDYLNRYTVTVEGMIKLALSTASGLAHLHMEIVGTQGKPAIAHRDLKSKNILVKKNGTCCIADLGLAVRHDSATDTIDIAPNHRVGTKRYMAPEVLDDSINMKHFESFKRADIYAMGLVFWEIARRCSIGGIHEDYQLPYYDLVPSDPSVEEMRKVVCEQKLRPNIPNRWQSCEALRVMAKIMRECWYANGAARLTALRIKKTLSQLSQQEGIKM
T14 sequence (P05771 whole entry): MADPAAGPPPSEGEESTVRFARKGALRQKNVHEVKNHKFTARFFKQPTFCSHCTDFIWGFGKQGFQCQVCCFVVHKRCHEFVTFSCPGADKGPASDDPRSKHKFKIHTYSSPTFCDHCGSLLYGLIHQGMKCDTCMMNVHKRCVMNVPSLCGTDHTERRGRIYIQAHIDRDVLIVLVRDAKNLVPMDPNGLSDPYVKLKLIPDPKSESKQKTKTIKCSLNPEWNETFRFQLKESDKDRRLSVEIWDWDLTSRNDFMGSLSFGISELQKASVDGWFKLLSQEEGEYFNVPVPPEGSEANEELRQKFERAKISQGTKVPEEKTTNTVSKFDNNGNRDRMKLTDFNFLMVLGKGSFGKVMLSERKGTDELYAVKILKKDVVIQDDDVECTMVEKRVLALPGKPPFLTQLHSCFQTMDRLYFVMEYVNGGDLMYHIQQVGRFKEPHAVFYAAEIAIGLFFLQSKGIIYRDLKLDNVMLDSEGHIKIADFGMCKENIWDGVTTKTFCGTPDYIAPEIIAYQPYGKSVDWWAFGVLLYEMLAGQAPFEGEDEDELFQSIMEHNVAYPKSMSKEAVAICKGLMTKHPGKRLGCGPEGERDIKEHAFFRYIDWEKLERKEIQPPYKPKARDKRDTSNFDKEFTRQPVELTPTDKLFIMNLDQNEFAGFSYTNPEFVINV
T3 sequence (Q9UHD2 whole entry): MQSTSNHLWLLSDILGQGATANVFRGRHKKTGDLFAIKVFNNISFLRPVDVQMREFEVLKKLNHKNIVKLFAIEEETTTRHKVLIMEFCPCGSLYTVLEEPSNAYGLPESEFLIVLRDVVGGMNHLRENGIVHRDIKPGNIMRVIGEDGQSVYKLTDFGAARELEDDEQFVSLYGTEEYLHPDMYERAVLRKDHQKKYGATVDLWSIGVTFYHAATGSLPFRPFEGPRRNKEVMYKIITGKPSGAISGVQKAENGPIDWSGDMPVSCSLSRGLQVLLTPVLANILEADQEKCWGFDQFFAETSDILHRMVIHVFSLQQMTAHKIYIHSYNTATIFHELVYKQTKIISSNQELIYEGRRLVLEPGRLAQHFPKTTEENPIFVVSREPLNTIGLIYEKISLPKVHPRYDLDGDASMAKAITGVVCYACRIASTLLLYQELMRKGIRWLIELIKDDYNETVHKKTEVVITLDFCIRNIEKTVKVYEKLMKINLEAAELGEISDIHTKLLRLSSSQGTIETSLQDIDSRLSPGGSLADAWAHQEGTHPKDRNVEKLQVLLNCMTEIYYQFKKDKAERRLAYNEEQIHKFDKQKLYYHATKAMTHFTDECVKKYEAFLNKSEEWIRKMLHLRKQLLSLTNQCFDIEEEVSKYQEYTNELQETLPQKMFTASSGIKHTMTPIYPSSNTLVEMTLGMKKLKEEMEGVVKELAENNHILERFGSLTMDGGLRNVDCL

Compound	remaining activity at 0.1 µM [1] [%]	remaining activity at 0.1 µM [2] [%]	remaining activity at 0.1 µM [3] [%]	remaining activity at 0.1 µM [4] [%]	remaining activity at 0.1 µM [5] [%]	remaining activity at 0.1 µM [6] [%]	remaining activity at 0.1 µM [7] [%]	remaining activity at 0.1 µM [8] [%]	remaining activity at 0.1 µM [9] [%]	remaining activity at 0.1 µM [10] [%]	remaining activity at 0.1 µM [11] [%]	remaining activity at 0.1 µM [12] [%]	remaining activity at 0.1 µM [13] [%]	remaining activity at 0.1 µM [14] [%]	remaining activity at 0.1 µM [15] [%]	remaining activity at 0.1 µM [16] [%]	remaining activity at 0.1 µM [17] [%]	remaining activity at 0.1 µM [18] [%]	remaining activity at 0.1 µM [19] [%]	remaining activity at 0.1 µM [20] [%]	also measured
CN1CCN(Cc2ccc(-c3cnc4[nH]cc(-c5ccc6[nH]ccc6c5)c4c3)cc2)CC1 [Compound 1, 3-(1H-Indol-5-yl)-5-(4-((4-methylpiperazin-1-yl)methyl)phenyl)-1H-pyrrolo[2,3-b]pyridine, reference compound]	110	101	82.8	93.2	78.5	97.6	73.8	59.3	94.9	97	94	106	90.9	78.3	26.9	106	56.4	101	89.8	104	remaining activity at 0.025 µM ([17]; 0.025 μM, read-out: MLK3 activity remaining): 56.4%; remaining activity at 0.1 µM [21]: 75.5%; remaining activity at 0.1 µM [22]: 97.8%; remaining activity at 0.1 µM [23]: 87.4%; remaining activity at 0.1 µM [24]: 95.1%
OCCN1CCN(Cc2ccc(-c3cnc4[nH]cc(-c5cccc(Cl)c5)c4c3)cc2)CC1 [Compound 12k, 2-(4-(4-(3-(3-Chlorophenyl)-1H-pyrrolo[2,3-b]pyridin-5-yl)benzyl)piperazin-1-yl)ethan-1-ol]	95.8	102	75.2	99.3	92.3	98.5	85.3	77.4	101	96.8	96.3	99.9	76.2	86.2	14.4	103	67	108	87.4	103	remaining activity at 0.1 µM [21]: 92.3%; remaining activity at 0.1 µM [22]: 101%; remaining activity at 0.1 µM [23]: 94.2%; remaining activity at 0.1 µM [24]: 100%

From patent US12227500B2, “Substituted pyrrolo[2,3-b]pyridines for suppressing toxic endoplasmic reticulum stress” (THE TRUSTEES OF COLUMBIA UNIVERSITY IN THE CITY OF NEW YORK, priority 2018, dated 2025)
